The values below come from publication PMC9959501, “Critical Analysis and Optimization of Stoichiometric Ratio of Drug-Coformer on Cocrystal Design: Molecular Docking, In Vitro and In Vivo Assessment” (Pharmaceuticals, 2023).

≈ marks a conversion by molar mass, not a printed value.

As usually defined, the solubility is how much of the substance goes into solution per volume. A high value points to much dissolved substance. A word on the AUC(0-inf): it is total exposure, with the tail of the curve extrapolated. Broadly, the Cmax is the peak of the concentration-time curve.

Data set [1] in a line: Equilibrium solubility analysis. Format: physicochemical. The conditions noted are these: distilled water, 25 °C, stirred 24 h; mean ± SD, n = 3. Here is the method: Improvement in solubility may due to the formation of hydrogen bonds between the imidazole rings of telmisartan and polar carboxylate hydrogens of maleic acid in presence of solvents.
The solubility analysis of telmisartan and prepared telmisartan-maleic acid cocrystals were assessed by placing an excessive amount of sample in 50 mL of distilled water at 25 °C. Then it was stirred for 24 h using a magnetic stirrer to ensure that the solution must reach equilibrium, and then sonicated (Imeco Sonifier, Imeco Ultrasonics, Pune, India) for 15 min. Then the solution was filtered and subjected to spectrophotometric analysis at 296 nm, using a UV-visible spectrophotometer (UV-1800 Shimadzu, Kyoto, Japan).

A short description of data set [2]: In vitro dissolution study (USP apparatus II). The class given is physicochemical. The conditions noted are these: phosphate buffer pH 7.5, 100 rpm, 37 ± 0.5 °C. The method, then: The dissolution study was performed in a phosphate buffer (pH 7.5) using a USP dissolution rate test apparatus II (LAB INDIA, DS 8000, Thane, India) at 100 rpm and 37 ± 0.5 °C (Figure 7). […] The enhancement in dissolution may be due to the formation of hydrogen bonds between telmisartan and maleic acid in presence of solvents. The computational simulation approach already predicted this finding. Another reason for the enhancement of dissolution may be a reduction in crystal size, solubilization effect of the carrier as well as improved wettability of the drug in presence of solvents.
A USP dissolution rate test apparatus II (LAB INDIA, DS 8000, India) was used to perform the dissolution studies of pure telmisartan and prepared multicomponent solid form (telmisartan cocrystals) in phosphate buffer medium (pH 7.5) at 37 ± 0.5 °C. An accurately weighed amount of sample was placed in a 900 mL dissolution medium and stirred at 100 rpm. At each specific time interval, a 5 mL sample was withdrawn and replaced by an equal volume of fresh pre-warmed phosphate buffer (pH 7.5) to maintain the sink condition throughout the experiment. The samples were filtered through Whatman filter paper (0.45 µm) and analyzed at 296 nm using a UV-visible spectrophotometer (UV-1800 Shimadzu, Japan). The dissolution studies were conducted in triplicate.

Data set [3] can be described thus: Pharmacokinetic study in rats. Format: in vivo. The conditions noted are these: male, Wistar, po, 1 mg/kg telmisartan equivalent in 0.5% w/v sodium carboxymethylcellulose, mean ± SD, n = 6. The method, then: In vivo study protocol was approved by the Institutional Animal Ethical Committee, Dr. B. C. Roy College of Pharmacy & AHS., Durgapur, West Bengal, India (Approval No: BCRCP/IAEC/8/2019). The pharmacokinetic study was performed using male Wistar rats (180–200 g). The animals were allowed to be acclimatized for a period of 1 week in our laboratory environment prior to the experiment and had free access to water and food.
The animals were divided into two groups. Group 1 (6 animals) received pure telmisartan (1 mg/kg) with 0.5% w/v sodium carboxymethylcellulose, and Group 2 (6 animals) received optimized cocrystals (equivalent to 1 mg/kg pure telmisartan) with 0.5% w/v sodium carboxymethylcellulose. Blood samples were collected at predetermined time intervals from the retro-orbital venous plexus of the rats and centrifuged for 5 min at 10,000 rpm. The plasma was separated and drug analysis was carried out by RP-HPLC method using the software ‘Class-Vp series version 5.03 (Shimadzu)’. The in vivo pharmacokinetic parameters such as peak plasma concentration (Cmax), total area under the plasma concentration-time curve (AUC0–∞), elimination rate constant (KE), and relative bioavailability (%) were calculated by using Kinetica software (version 4.4.1; Thermo Fisher Scientific, Waltham, MA, USA).

The nature of data set [4]: Crystallite size from PXRD data (Scherrer's formula). The class given is physicochemical. Here is the method:
An XRD study was performed to assess the physico-chemical state of telmisartan in prepared telmisartan-maleic acid cocrystals. The XRD study was performed by X-Ray Diffractometer (X’Pert Pro, Panalytical, Almelo, The Netherlands) using monochromatized Cu Kα radiation (λ = 1.54 Å) at a voltage of 45 kV and a current of 40 mA. Measurements were carried out in the angular scan range from 5° to 50° (2θ) at a scan speed of 1°/min. This study also helps to determine the size of the formed crystallite using Scherrer’s formula. Crystallite size Dp=K λ/Bcosθ, where Dp is average crystallite size (nm), K is Scherrer constant, λ is X-ray wavelength, B is FWHM (Full Width at Half Maximum) of XRD peak, and θ is XRD peak position.

In data set [1], `CCCc1nc2c(C)cc(-c3nc4ccccc4n3C)cc2n1Cc1ccc(-c2ccccc2C(=O)O)cc1` [PD, Telmisartan] registered a solubility at 24 h of 5.15 ± 1.16 µg/mL (≈ 10 µM). The “Percentage drug dissolved within 120 min” value in data set [2] is on record as 29.04 ± 2.06%. Further, the k el in data set [3] (plasma, rat, read-out: KE (elimination rate constant) (converted)) was 3e-05 s⁻¹. In addition, in data set [3] (rat plasma), the AUC(0-inf) was 4180 ± 87.8 ng·h/mL and the Cmax was found to be 945 ± 27.9 ng/mL. This compound had an Average crystallite size in data set [4] of 893.51 ± 42.82 nm.
